According to ChEMBL document CHEMBL3627608, “Crystal structures of human RIP2 kinase catalytic domain complexed with ATP-competitive inhibitors: Foundations for understanding inhibitor selectivity” (Bioorg Med Chem, 2015):

Columns and labels:
[1] = biological target: Homeodomain-interacting protein kinase 3 (Homo sapiens) (UniProt Q9H422); test: Inhibition of HIPK3 (unknown origin) at 10 uM after 120 mins P33 radiolabeled kinase activity assay
[2] = biological target: Receptor-interacting serine/threonine-protein kinase 3 (Homo sapiens) (UniProt Q9Y572); test: Inhibition of RIPK3 (unknown origin) at 10 uM after 120 mins P33 radiolabeled kinase activity assay
Sequence of Receptor-interacting serine/threonine-protein kinase 3 (Homo sapiens) (Q9Y572 whole entry, looked up): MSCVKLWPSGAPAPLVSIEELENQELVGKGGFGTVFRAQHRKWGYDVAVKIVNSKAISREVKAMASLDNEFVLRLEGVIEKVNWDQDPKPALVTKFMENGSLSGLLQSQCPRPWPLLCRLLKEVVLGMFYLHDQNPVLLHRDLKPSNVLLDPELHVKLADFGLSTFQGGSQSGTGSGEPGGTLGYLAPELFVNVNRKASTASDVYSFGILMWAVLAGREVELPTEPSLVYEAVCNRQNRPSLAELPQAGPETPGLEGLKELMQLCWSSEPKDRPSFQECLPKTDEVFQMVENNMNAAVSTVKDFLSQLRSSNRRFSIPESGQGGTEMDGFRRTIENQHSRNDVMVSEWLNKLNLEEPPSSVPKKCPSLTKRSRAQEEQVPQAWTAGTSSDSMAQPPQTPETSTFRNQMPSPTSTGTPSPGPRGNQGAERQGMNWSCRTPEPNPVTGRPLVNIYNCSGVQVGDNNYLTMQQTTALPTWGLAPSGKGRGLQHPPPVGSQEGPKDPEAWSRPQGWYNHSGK

[3] = biological target: T1, Inhibitor of nuclear factor kappa-B kinase subunit beta (Homo sapiens) (UniProt O14920); test: Inhibition of IKKbeta (unknown origin) at 10 uM after 120 mins P33 radiolabeled kinase activity assay
T1 sequence (whole entry): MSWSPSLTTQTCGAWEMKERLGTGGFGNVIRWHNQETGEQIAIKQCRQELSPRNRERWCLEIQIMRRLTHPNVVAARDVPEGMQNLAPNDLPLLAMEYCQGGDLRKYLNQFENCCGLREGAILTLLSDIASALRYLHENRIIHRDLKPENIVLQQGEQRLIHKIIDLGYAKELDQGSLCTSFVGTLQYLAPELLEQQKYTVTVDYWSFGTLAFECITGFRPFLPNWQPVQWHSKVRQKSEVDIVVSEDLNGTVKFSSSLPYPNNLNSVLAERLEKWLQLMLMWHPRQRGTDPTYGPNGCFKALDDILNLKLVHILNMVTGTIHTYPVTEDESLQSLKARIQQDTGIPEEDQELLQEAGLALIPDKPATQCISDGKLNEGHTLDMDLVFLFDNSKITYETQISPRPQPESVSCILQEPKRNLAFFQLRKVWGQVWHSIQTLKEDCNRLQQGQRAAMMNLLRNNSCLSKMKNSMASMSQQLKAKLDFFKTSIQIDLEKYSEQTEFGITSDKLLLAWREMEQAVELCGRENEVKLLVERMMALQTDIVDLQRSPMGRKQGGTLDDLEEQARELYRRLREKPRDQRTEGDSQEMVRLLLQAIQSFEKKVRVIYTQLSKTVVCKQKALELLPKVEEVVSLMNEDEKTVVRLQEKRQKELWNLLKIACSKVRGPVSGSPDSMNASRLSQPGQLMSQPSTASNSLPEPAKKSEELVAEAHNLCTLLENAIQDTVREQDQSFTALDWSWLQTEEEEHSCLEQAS

[4] = biological target: T2, NUAK family SNF1-like kinase 2 (Homo sapiens) (UniProt Q9H093); test: Inhibition of SNARK (unknown origin) at 10 uM after 120 mins P33 radiolabeled kinase activity assay
T2 sequence (whole entry): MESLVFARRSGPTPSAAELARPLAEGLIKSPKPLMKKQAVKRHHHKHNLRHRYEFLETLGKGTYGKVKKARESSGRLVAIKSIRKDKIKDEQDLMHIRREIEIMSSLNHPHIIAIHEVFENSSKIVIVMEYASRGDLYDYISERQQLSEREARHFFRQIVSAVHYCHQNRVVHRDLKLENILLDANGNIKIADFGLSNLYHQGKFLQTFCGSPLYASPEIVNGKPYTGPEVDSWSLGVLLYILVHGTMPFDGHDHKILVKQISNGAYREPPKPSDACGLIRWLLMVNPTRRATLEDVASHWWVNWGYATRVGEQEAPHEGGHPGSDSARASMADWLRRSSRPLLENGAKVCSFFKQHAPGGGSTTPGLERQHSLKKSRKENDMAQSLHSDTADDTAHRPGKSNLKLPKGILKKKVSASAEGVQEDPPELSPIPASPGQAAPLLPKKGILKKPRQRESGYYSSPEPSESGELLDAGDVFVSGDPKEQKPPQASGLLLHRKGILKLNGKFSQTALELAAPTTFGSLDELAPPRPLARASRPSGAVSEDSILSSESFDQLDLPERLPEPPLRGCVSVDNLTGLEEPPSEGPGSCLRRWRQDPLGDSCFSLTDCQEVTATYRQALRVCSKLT

[5] = biological target: T3, Tyrosine-protein kinase ZAP-70 (Homo sapiens) (UniProt P43403); test: Inhibition of ZAP70 (unknown origin) at 10 uM after 120 mins P33 radiolabeled kinase activity assay
T3 sequence (whole entry): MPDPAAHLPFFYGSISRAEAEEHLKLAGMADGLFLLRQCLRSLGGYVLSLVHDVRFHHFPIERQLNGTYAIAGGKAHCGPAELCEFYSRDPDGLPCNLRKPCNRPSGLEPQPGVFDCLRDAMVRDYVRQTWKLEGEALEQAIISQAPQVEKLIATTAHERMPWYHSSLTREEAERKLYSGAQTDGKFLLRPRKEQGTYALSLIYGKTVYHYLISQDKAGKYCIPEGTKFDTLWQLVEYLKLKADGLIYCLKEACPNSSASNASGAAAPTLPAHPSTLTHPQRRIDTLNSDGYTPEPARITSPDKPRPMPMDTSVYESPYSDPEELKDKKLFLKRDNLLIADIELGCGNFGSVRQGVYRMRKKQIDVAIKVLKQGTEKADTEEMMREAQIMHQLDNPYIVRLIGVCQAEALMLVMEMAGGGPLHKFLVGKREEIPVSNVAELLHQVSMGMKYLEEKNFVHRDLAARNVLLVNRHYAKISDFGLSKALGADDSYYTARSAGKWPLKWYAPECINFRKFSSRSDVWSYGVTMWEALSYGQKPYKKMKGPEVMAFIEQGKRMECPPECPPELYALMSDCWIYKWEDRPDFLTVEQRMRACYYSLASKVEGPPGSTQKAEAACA

[6] = biological target: Hepatocyte growth factor receptor (Homo sapiens) (UniProt P08581); test: Inhibition of c-MET (unknown origin) at 10 uM after 120 mins P33 radiolabeled kinase activity assay
Sequence of Hepatocyte growth factor receptor (Homo sapiens) (P08581 whole entry): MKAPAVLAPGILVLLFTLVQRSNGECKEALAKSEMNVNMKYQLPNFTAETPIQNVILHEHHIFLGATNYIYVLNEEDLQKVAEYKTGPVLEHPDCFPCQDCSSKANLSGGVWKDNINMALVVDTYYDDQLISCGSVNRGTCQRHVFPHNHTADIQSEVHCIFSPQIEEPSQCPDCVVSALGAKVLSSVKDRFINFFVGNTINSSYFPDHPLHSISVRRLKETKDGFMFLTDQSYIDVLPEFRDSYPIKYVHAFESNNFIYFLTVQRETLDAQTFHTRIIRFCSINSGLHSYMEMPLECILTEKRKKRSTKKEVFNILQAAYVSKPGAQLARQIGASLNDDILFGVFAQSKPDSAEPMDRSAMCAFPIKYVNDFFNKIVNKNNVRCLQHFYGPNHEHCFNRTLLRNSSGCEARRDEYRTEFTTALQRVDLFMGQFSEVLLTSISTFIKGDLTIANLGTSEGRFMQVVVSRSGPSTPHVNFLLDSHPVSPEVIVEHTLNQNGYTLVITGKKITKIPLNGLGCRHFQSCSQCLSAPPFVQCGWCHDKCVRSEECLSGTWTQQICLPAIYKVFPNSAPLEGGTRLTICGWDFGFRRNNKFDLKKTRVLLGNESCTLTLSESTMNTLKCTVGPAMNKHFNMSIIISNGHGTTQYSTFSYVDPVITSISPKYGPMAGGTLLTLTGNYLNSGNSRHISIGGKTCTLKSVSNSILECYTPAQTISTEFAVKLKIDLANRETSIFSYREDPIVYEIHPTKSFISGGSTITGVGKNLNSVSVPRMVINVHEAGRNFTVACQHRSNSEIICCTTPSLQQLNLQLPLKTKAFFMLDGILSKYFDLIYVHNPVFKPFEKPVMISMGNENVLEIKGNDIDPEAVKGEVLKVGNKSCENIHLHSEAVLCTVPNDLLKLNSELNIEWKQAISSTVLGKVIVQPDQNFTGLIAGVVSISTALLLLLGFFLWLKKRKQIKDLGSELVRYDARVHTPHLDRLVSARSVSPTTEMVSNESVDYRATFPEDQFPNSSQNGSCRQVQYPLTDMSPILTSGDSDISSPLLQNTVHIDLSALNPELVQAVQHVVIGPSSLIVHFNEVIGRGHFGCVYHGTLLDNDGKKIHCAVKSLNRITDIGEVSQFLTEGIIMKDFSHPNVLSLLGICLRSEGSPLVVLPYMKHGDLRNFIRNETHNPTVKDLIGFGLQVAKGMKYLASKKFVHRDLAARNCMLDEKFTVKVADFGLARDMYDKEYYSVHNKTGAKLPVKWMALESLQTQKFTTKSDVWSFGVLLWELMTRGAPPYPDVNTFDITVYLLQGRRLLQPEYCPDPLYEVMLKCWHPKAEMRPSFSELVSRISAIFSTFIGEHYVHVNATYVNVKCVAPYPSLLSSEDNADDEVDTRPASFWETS

Sequence of Homeodomain-interacting protein kinase 3 (Homo sapiens) (Q9H422 whole entry, looked up): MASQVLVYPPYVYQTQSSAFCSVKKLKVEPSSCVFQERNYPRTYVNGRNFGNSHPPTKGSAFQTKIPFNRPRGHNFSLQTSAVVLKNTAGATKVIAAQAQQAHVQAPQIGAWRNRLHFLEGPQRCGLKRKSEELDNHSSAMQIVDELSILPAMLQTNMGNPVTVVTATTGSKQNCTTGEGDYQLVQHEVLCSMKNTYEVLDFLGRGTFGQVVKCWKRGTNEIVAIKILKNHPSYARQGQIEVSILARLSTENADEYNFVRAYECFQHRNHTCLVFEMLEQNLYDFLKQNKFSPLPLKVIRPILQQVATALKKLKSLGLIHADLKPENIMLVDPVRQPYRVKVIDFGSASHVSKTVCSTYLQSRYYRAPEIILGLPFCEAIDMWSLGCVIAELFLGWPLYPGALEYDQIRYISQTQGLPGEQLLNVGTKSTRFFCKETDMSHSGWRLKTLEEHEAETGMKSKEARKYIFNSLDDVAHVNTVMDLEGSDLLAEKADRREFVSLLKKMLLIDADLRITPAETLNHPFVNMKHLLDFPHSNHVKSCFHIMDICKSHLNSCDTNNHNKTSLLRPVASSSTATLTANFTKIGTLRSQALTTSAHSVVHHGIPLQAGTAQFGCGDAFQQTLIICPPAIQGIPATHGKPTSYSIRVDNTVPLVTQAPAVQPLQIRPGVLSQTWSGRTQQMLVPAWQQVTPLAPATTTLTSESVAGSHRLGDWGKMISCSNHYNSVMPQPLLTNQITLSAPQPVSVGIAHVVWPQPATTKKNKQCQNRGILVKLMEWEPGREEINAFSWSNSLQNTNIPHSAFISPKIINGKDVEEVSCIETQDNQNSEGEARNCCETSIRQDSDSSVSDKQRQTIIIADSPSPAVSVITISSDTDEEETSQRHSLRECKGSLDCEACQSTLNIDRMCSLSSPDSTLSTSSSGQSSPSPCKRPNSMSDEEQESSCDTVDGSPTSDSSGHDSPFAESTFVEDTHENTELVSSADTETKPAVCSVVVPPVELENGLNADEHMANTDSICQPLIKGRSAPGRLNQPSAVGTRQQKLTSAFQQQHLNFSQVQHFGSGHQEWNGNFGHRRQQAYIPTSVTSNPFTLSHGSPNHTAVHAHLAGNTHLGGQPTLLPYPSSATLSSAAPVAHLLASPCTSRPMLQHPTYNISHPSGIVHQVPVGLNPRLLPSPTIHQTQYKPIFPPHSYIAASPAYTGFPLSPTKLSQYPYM

| inhibition [1] [%] | inhibition [2] [%] | inhibition [3] [%] | inhibition [4] [%] | inhibition [5] [%] | inhibition [6] [%] | SMILES |
| --- | --- | --- | --- | --- | --- | --- |
| 89.4 | 83.1 | 1.51 | 2.62 | -0.68 | 16.8 | CS(=O)(=O)c1cccc(Nc2nccc(-c3sc(N4CCOCC4)nc3-c3cccc(NS(=O)(=O)c4c(F)cccc4F)c3)n2)c1 |
| 3.91 | 27.6 | -5.88 | 2.98 | 0.28 | 10.9 | COCCNC(=O)c1ccc2c(c1)nc(-c1cnc(-c3ccc(Cl)cc3)[nH]1)n2CCOC |
| 45.5 | 81.4 | -0.16 | -1.05 | -5.86 | 92.4 | CC(C)(C)c1cc(NC(=O)Nc2ccc(Oc3ccncc3)cc2)no1 |
